Data from patent publication US20220033407A1, “N-(pyridin-2-ylsulfonyl)cyclopropanecarboxamide Derivatives and their Use in the Treatment of Disease” (NOVARTIS AG, priority 2018, published 2022).

Molecular target: T1, delF508-CFTR-HRP (Homo sapiens, UniProt P13569, DEL508-508)
T1 construct: expressed in transfected cells
Test: Measurement of delF508-CFTR-HRP surface expression in CFBE41o- cells (HRP luminescence);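 as to DelF508-CFTR-HRP Amax %: percent efficacy relative to a reference CFTR corrector compound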
Format: cell-based
Settings: for EC50: mean of at least two replicates; for Emax: CFBE41o-, read-out: DelF508-CFTR-HRP Amax %
Excerpt: Measurement of delF508-CFTR-HRP Surface Expression in CFBE41o-Cells
This assay quantifies the cell surface expressions of the mutant CFTR channel using an extracellular HRP tag.
A cellular assay was developed to measure surface expression of horseradish peroxidase (HRP) tagged delF508-CFTR in the human bronchial epithelial immortalized CFBE41o-cell line (Phuan, P. W., et al, (2014) Molecular Pharmacology 86:42-51). Specifically, the HRP sequence was inserted into the fourth extracellular loop of delF508-CFTR and stably expressed in CFBE41o-cells. Cells were seeded in 384 well plate at a density of 5000 cells/well and incubated at 37° C. for 12 to 24 hours in medium (Gibco MEM #11095, 10% FBS, 10 mM HEPES, […], 200 μg/mL G418, 3 μg/mL Puromycin). The delF508-CFTR-HRP expression was induced with 500 ng/mL doxycycline (Sigma D-9891, dissolved in H2O and sterile filtered) in medium and the cells were incubated at 37° C. for 48 h. Old medium was removed and fresh medium was added containing 500 ng/mL doxycycline and unknown test compound at required test concentration in DMSO, not exceeding 0.5% final DMSO concentration. The highest concentration tested was 10 μM with a 10-point concentration response curve using a 3-fold dilution. After addition of compounds, the cells were incubated for 24 h at 37° C. On the final day, cells were washed four times in PBS containing 1 mM MgCl2 and 0.1 mM CaCl2. HRP-Substrate (SuperSignal ELISA Pico, Fisher #37069) 20 μl/well was added and the luminescence signal was determined (Viewlux, Perkin Elmer). Light was emitted upon addition of exogenous HRP-Substrate only when delF508-CFTR-HRP reached the cell surface and the HRP tag was accessible to the HRP-Substrate (note: HRP-Substrate cannot cross the lipid bilayer to reach delF508-CFTR-HRP misfolded within the cell).
The median activity for the lowest concentration of the compounds on each assay plate was calculated and this value was used to normalize the signal for each well on the respective plate. Three replicates at each concentrations for every compound were run to determine one EC50. The median value was determined and used to calculate compound activities as described below. Effective half maximal values (EC50) were calculated for each compound by performing logistic regression on measured dose-response data points using the equation: […]
where “Y” is the observed activity, “Bottom” is the lowest observed value, “Top” is the highest observed value, and the “Hill coefficient” gives the largest absolute value of the slope. The curve fitting is carried out by a curve fitting program implemented at GNF using Matlab (Mathworks). The dose response curves also were used to calculate Fold Change (FC) using the equation: […]
Compound efficacy relative to the reference compound 3-(6-(1-(2,2-difluorobenzo[d][1,3]dioxol-5-yl)cyclopropane-1-carboxamido)-3-methylpyridin-2-yl)benzoic acid was determined using the following formula: […]

T1 sequence (P13569 with tags, fused parts or gaps DEL508-508): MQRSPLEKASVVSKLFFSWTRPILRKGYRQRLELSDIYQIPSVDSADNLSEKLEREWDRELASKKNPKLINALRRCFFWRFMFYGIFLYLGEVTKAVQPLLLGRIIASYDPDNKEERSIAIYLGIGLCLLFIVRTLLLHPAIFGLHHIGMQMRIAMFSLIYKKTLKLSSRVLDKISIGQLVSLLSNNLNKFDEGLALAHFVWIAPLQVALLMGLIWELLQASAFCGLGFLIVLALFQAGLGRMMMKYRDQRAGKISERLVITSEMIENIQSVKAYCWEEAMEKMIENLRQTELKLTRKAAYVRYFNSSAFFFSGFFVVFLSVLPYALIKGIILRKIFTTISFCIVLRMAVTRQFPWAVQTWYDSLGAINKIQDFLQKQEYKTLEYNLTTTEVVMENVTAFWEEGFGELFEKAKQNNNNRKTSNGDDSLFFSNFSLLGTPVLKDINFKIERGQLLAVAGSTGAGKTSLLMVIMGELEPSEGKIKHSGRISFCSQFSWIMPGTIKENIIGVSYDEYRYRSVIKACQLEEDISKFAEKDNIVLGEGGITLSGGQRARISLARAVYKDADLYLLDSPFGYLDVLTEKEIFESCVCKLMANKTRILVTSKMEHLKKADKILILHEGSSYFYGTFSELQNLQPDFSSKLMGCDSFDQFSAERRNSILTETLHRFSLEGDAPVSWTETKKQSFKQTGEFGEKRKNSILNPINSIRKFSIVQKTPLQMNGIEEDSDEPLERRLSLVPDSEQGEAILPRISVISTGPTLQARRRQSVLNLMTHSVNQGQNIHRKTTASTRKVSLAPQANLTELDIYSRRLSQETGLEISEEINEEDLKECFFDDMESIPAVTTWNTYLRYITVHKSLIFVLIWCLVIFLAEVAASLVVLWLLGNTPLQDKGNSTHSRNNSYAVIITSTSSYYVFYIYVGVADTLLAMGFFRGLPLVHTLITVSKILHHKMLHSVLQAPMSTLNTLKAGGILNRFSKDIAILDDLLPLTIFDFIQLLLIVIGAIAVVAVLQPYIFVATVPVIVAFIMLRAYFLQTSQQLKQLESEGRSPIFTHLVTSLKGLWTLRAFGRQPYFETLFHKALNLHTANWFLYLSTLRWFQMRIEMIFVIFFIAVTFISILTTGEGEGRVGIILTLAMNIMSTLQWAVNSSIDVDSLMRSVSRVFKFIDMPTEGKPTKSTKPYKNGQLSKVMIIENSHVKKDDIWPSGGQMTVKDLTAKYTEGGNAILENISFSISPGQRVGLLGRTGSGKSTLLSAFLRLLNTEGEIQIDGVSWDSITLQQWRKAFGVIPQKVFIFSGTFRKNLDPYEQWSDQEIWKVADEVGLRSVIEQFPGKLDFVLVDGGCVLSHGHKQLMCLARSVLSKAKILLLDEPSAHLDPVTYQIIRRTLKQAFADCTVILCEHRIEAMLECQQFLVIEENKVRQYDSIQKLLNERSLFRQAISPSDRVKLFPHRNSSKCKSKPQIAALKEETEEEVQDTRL

SMILES	EC50	DelF508-CFTR-HRP Amax %	Emax
CC1(O)CCCN(c2cccc(S(=O)(=O)NC(=O)C3(Oc4cc(Cl)ccc4C4CC5(CCC5)C4)CC3)n2)C1 (single isomer, unassigned) [Example 7-8-1, 1-(5-chloro-2-(spiro[3.3]heptan-2-yl)phenoxy)-N-((6-(3-hydroxy-3-methylpiperidin-1-yl)pyridin-2-yl)sulfonyl)cyclopropanecarboxamide]	1000 nM	535.5%	
Cc1ccc(C)c(OC2(C(=O)NS(=O)(=O)c3cccc(NC[C@@H](C)O)n3)CCCC2)c1 [Example 4-4, (R)-1-(2,5-dimethylphenoxy)-N-((6-((2-hydroxypropyl)amino)pyridin-2-yl)sulfonyl)cyclopentane-1-carboxamide]	4770 nM		84%
O=C(NS(=O)(=O)c1cccc(N2CC[C@H](O)C2)n1)C1(Oc2cc(Cl)ccc2OC2CCCC2)CC1 [Example 6-14, (S)-1-(5-chloro-2-(cyclopentyloxy)phenoxy)-N-((6-(3-hydroxypyrrolidin-1-yl)pyridin-2-yl)sulfonyl)cyclopropanecarboxamide]	3240 nM		276%
Cc1ccc(OC2CCC(C(C)(C)C)CC2)c(OC2(C(=O)NS(=O)(=O)c3cccc(N4CC[C@H](O)C4)n3)CC2)c1 (stereo partly drawn) [Example 6-4, (S)-1-(2-((4-(tert-butyl)cyclohexyl)oxy)-5-methylphenoxy)-N-((6-(3-hydroxypyrrolidin-1-yl)pyridin-2-yl)sulfonyl)cyclopropanecarboxamide]	330 nM		526%
O=C(NS(=O)(=O)c1cccc(N2CC[C@H](O)C2)n1)C1(Oc2cc(Cl)ccc2-c2cccc(OC(F)(F)F)c2)CC1 [Example 5-6, (S)-1-((4-Chloro-3′-(trifluoromethoxy)-[1,1′-biphenyl]-2-yl)oxy)-N-((6-(3-hydroxypyrrolidin-1-yl)pyridin-2-yl)sulfonyl)cyclopropane-1-carboxamide]	1770 nM		280%
Cc1ccc(C2CCC3(CCC3)OC2)c(OC2(C(=O)NS(=O)(=O)c3cccc(N4CCC(C)(O)CC4)n3)CC2)c1 (single isomer, unassigned) [Example 11-4-2, N-((6-(4-hydroxy-4-methylpiperidin-1-yl)pyridin-2-yl)sulfonyl)-1-(5-methyl-2-(5-oxaspiro[3.5]nonan-7-yl)phenoxy)cyclopropane-1-carboxamide]	2650 nM	242.9%	
Cc1ccc(C2CCC(C)(C)OC2)c(OC2(C(=O)NS(=O)(=O)c3cccc(N4CCC(O)(C(F)(F)F)CC4)n3)CC2)c1 (single isomer, unassigned) [Example 11-2-1, 1-(2-(6,6-Dimethyltetrahydro-2H-pyran-3-yl)-5-methylphenoxy)-N-((6-(4-hydroxy-4-(trifluoromethyl)piperidin-1-yl)pyridin-2-yl)sulfonyl)cyclopropane-1-carboxamide]	1860 nM	473.8%	
CC(C)(C)C1(O)CCN(c2cccc(S(=O)(=O)NC(=O)C3(Oc4cc(Cl)ccc4C4CC5(CCC5)C4)CC3)n2)CC1 [Example 7-4, N-((6-(4-(tert-butyl)-4-hydroxypiperidin-1-yl)pyridin-2-yl)sulfonyl)-1-(5-chloro-2-(spiro[3.3]heptan-2-yl)phenoxy)cyclopropanecarboxamide]	440 nM		840%
CC(C)(C)C1CCC(Nc2ccc(Cl)cc2OC2(C(=O)NS(=O)(=O)c3cccc(N4CC[C@H](O)C4)n3)CC2)CC1 (single isomer, unassigned) [Example 9-5-2]	330 nM	678.4%	

Now from value to compound:

EC50	DelF508-CFTR-HRP Amax %	Emax	SMILES
1650 nM			O=C(NS(=O)(=O)c1cccc(N2CC[C@H](O)C2)n1)C1(Oc2cc(Cl)ccc2N2CCC3(CC2)CC3)CC1 [Example 9-9, (S)-1-(5-Chloro-2-(6-azaspiro[2.5]octan-6-yl)phenoxy)-N-((6-(3-hydroxypyrrolidin-1-yl)pyridin-2-yl)sulfonyl)cyclopropanecarboxamide]
1690 nM		52%	O=C(NS(=O)(=O)c1cccc(N2CC[C@H](O)C2)n1)C1(Oc2cc(Cl)ccc2N2CC3(CCOCC3)C2)CC1 [Example 9-36, (S)-1-(5-Chloro-2-(7-oxa-2-azaspiro[3.5]nonan-2-yl)phenoxy)-N-((6-(3-hydroxypyrrolidin-1-yl)pyridin-2-yl)sulfonyl)cyclopropanecarboxamide]
430 nM		307%	CC1(C)CCN(c2ccc(Cl)cc2OC2(C(=O)NS(=O)(=O)c3cccc(N4CCC5(CC4)OCc4ccccc45)n3)CC2)CC1 [Example 10-8, N-((6-(3H-spiro[isobenzofuran-1,4′-piperidin]-1′-yl)pyridin-2-yl)sulfonyl)-1-(5-chloro-2-(4,4-dimethylpiperidin-1-yl)phenoxy)cyclopropanecarboxamide]
1020 nM		475%	COCCN(C)c1cccc(S(=O)(=O)NC(=O)C2(Oc3cc(Cl)ccc3N3CCC(C)(C)CC3)CC2)n1 [Example 10-5, 1-(5-chloro-2-(4,4-dimethylpiperidin-1-yl)phenoxy)-N-((6-((2-methoxyethyl)(methyl)amino)pyridin-2-yl)sulfonyl)cyclopropanecarboxamide]
340 nM		140%	CC1(O)CCN(c2cccc(S(=O)(=O)NC(=O)C3(Oc4cc(Cl)ccc4N4CCC(C(C)(C)C)CC4)CC3)n2)CC1 [Example 9-35, 1-(2-(4-(Tert-butyl)piperidin-1-yl)-5-chlorophenoxy)-N-((6-(4-hydroxy-4-methylpiperidin-1-yl)pyridin-2-yl)sulfonyl)cyclopropanecarboxamide]
1840 nM		329%	CC1(C)CCN(c2ccc(C(F)(F)F)cc2OC2(C(=O)NS(=O)(=O)c3cccc(N4CC[C@H](O)C4)n3)CC2)CC1 [Example 9-26, (S)-1-(2-(4,4-Dimethylpiperidin-1-yl)-5-(trifluoromethyl)phenoxy)-N-((6-(3-hydroxypyrrolidin-1-yl)pyridin-2-yl)sulfonyl)cyclopropanecarboxamide]
10000 nM		13.7%	O=C(NS(=O)(=O)c1cccc(N2CC[C@H](O)C2)n1)C1(Oc2cc(Cl)ccc2N2CC3(COC3)C2)CC1 [Example 9-23, (S)-1-(5-Chloro-2-(2-oxa-6-azaspiro[3.3]heptan-6-yl)phenoxy)-N-((6-(3-hydroxypyrrolidin-1-yl)pyridin-2-yl)sulfonyl)cyclopropanecarboxamide]
1350 nM		588%	O=C(NS(=O)(=O)c1cccc(N2C[C@H]3CC[C@@H](O)[C@H]3C2)n1)C1(Oc2cc(Cl)ccc2N2CC3(CCCCC3)C2)CC1 [Example 9-3, 1-(5-chloro-2-(2-azaspiro[3.5]nonan-2-yl)phenoxy)-N-((6-((3aR,4R,6aS)-4-hydroxyhexahydrocyclopenta[c]pyrrol-2(1H)-yl)pyridin-2-yl)sulfonyl)cyclopropane-1-carboxamide]
80 nM		12.6%	O=C(NS(=O)(=O)c1cccc(N2CC[C@H](O)C2)n1)C1(Oc2cc(Cl)ccc2N2CCC(O)(c3ccccn3)CC2)CC1 [Example 9-37, (S)-1-(5-Chloro-2-(4-hydroxy-4-(pyridin-2-yl)piperidin-1-yl)phenoxy)-N-((6-(3-hydroxypyrrolidin-1-yl)pyridin-2-yl)sulfonyl)cyclopropanecarboxamide]
